Source: patent US6015820A, “4-Aryl-thio-pyridin-2(1H)-ones, medicines containing them and their uses in the treatment of illnesses linked to HIV” (priority 1995, dated 2000)
pIC50: −log10 of the molar value.

Columns and labels:
HIV-1 LAI = assay: anti-HIV-1 activity: replication of HIV-1 LAI on CEM-SS cells; format: cell-based; settings: Table 2, HIV-1 LAI, CEM-SS cells; for pIC50: Human immunodeficiency virus 1, 120 h, 5 days, read-out: IC50, anti-HIV-1 activity
Experimental: (§1) The CEM-SS and the HIV-1 resistant to Nevirapine (N119) carrying a point mutation at codon 181 of the IT, were supplied respectively by P. NARA and D. RICHMAN through the intermediary of the AIDS Research and Reference Reagent Program, Division of AIDS, NIAID, NIH (USA) (Catalogue references : No. 776 and No. 1392).
(§2) The virus production was measured by quantifying the activity of the inverse transcriptase associated with viral particles released into the culture supernatant. In short, cells were infected with 100 TCID50 for 30 minutes; after adsorption of the virus, unbound particles were removed by two washings and the cells were cultivated in the presence of different concentrations of the compounds tested for 5 days before determining the viral production. The concentration inhibiting 50% of the viral multiplication (IC50) came from the computer plot of the median effect of the dose effect results (Chou et al. Elsevier Science Publishers, Cambridge U.K. (1985), 19-28).

[1] = test system: HIV-1 resistant to Nevirapine (N119); assay: microbe, parasite or virus in culture; format: cell-based; settings: for pIC50: Human immunodeficiency virus 1, CEM-SS, read-out: IC50, strain resistant to Nevirapine; for SI (selectivity index): Table 3, strain resistant to Nevirapine
Experimental: as §1, with “The effects of the compounds were evaluated on the replication of HIV-1 (see Table 2) on CEM-SS cells (cell lines of the lymphocytic lineage) strongly infected with HIV-1 LAI as described by Moog et al. (Antiviral Research (1994), 24, 275-288). The” for “The”
as §2

IT of HIV-2 = IT of HIV-2 (Human immunodeficiency virus type 2 (ISOLATE ROD), UniProt P04584); assay: inhibition of the inverse transcriptase of HIV-2; format: biochemical; settings: at concentrations at which the IT of HIV-1 was well inhibited (FIG. 9)
Sequence of IT of HIV-2 (P04584 613-1171): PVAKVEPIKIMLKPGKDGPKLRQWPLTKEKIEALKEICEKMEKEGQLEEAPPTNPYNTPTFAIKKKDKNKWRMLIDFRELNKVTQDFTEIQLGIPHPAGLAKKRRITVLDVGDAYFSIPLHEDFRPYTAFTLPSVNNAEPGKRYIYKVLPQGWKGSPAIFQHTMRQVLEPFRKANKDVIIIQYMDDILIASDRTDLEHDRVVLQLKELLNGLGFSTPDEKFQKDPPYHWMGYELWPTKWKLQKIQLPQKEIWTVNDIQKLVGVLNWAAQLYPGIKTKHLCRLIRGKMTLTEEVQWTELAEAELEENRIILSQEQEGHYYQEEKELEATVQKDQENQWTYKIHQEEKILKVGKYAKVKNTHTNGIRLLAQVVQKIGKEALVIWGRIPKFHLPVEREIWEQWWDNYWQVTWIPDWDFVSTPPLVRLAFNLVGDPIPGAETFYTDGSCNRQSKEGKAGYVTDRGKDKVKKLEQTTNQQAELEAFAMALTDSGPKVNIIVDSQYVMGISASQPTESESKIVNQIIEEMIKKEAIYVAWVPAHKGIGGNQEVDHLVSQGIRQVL
Experimental: The system for the expression of the IT of HIV-2 in E.coli (B. Muller et al. (1991 J. Biol. Chem. 266, 14708-14713) was provided by Dr. R. Goody. The IT of the HIV-2 was purified in the same way as the IT of the HIV-1.
(§3) Incubation was carried out at 37° C. for 10 minutes in the presence of various matrix-primers.
(§4) a) Poly C-oligo dG: the reaction mixture contained a final volume of 0.05 ml, Tris-HCl 50 mM pH 8.0, MgCl2 5 mM, dithiothreitol 4 mM, 0.48 A260 /ml of poly C-oligo dG (5:1), 1.0 μCi of [^3 H]dGTP (28 Ci/mmole), dGTP 2 μM, KCl 80 mM, 1 μg of bovine serum albumin and IT 20-50 nM.
(§5) b) Poly A-oligo dT: the same conditions as in a), except that 0.48 A260 /ml of poly A-oligo dT (5:1), 0.5 μCi of [^3 H]dTTP (46 Ci/mmole), dTTP 20 μM were used.
(§6) The reactions were stopped by adding in the cold 1 ml of 10% trichloroacetic acid plus sodium pyrophosphate 0.1 M. The precipitates were filtered through nitrocellulose membranes, washed with 2% trichloroacetic acid, dried and counted in a PPO/POPOP/toluene scintillation mixture.
(§7) All the compounds were dissolved in dimethyl#sulphoxide (DMSO). The test samples were prepared in the presence of the same final concentration of DMSO. IC50 is the concentration required to inhibit the activity of the IT of the recombinant HIV-1 by 50%.

IT of recombinant HIV-1 = target: T1, IT of recombinant HIV-1 (Human immunodeficiency virus type 1 group M subtype B, UniProt P03369); assay: inhibition of the inverse transcriptase of recombinant HIV-1; format: biochemical
T1 construct: purify the IT enzyme of the recombinant HIV-1; made in house; host or cells: yeast cells transformed with the pAB 24/IT-4 vector
Experimental: Yeast cells transformed with the pAB 24/IT-4 vector were used to purify the IT enzyme of the recombinant HIV-1 as described by Sallafranque-Andreola et al. (1989 Eur. J. Biochem. 184, 364-374).
as §3, §4, §5, §6, §7

[2] = cytotoxicity on non-infected cells (MTT test); format: cell-based; settings: human; Table 2; non-infected CEM-SS cells, MTT, 5 days
Experimental: (§8) In parallel experiments, the cytotoxicity of the molecules was measured on non-infected cells, after an incubation of 5 days in the presence of these molecules, by using a […] titration (MTT test) based on the ability of the mitochondrial dehydrogenases of the living cells to reduce 3-(4,5-dimethylthiazol-2-yl)-2,5-diphenyltetrazolium bromide in formazan (Mosmann et al. J. Immunol. Methods ([…]), 65, 55-63). The concentration cytotoxic at 50% (CC50) is the concentration at which the DO540 has been reduced to half and is calculated by using the program mentioned above.

CEM-SS cells = assay: cytotoxicity on non-infected cells (MTT test); format: cell-based; settings: Table 3; non-infected cells, MTT, 5 days
Experimental: as §8

[3] = target: inverse transcriptase of HIV-1 (HIV-1 M:B_ARV2/SF2, UniProt P03369); assay: enzymatic kinetic analysis of IT inhibition (Lineweaver-Burk); format: biochemical
Experimental: FIG. 12 is a double-reciprocal (Lineweaver-Burk) representation of the inhibition of the inverse transcriptase of HIV-1 by compound 7c with the poly C-oligo dG as a matrix-primer couple and dGPT as substrate.
FIG. 13 is a double-reciprocal representation, similar to […], in which the poly A-oligo dT is used as a matrix-primer couple and dTTP as substrate.
as §3, §4, §5, §6

| SMILES | pIC50 (HIV-1 LAI) | SI (selectivity index) (HIV-1 LAI) | pIC50 [1] | SI (selectivity index) [1] | effect on activity of the IT of HIV-2 (IT of HIV-2) | pIC50 (IT of recombinant HIV-1) | effect on activity of the IT of HIV-1 in HIV-1/HIV-2 comparison (IT of recombinant HIV-1; FIG. 9) | IT inhibition according to matrix-primer couple (IT of recombinant HIV-1; poly C-oligo dG compared with poly A-oligo dT (FIG. 9)) | CC50 at 120 h [2] | CC50 (CEM-SS cells) | type of inhibition ([3]; as regards dGTP substrate, poly C-oligo dG matrix-primer (FIG. 12)) | type of inhibition ([3]; poly A-oligo dT matrix-primer, dTTP substrate (FIG. 13)) |
| --- | --- | --- | --- | --- | --- | --- | --- | --- | --- | --- | --- | --- |
| CCc1c(C)nc(O)c(N)c1Sc1cc(C)cc(C)c1 [Compound 8c, 3-amino-5-ethyl-6-methyl-4-(3', 5'-dimethylphenyl)thio-pyridin-2(1H)-one] | 7.85 | > 714 | 5.68 | > 4 | not affected | 7.82 | well inhibited | gave the same result | > 10 µM | > 10 µM | non-competitive | competitive |
| CCOC(=O)c1c(Sc2cc(C)cc(C)c2)c(CC)c(C)[nH]c1=O [Compound 15, 5-ethyl-6-methyl-3-carbethoxy-4-(3', 5'-dimethylphenyl)thio-pyridin-2(1H)-one] | 8.52 | > 3333 | 5.66 | > 4.5 |  | 6.22 |  |  | > 10 µM | > 10 µM |  |  |
